Data on two compounds can be found in ChEMBL document CHEMBL4742386, “4-oxo-3,4-dihydro-1,2,3-benzotriazine derivatives as modulators of gpr139” (2019).

What all share (format): functional
The nature of assay [1]: Induction of c-Fos expression in C57BL/6 mouse assessed as cFos cell count in brain at 0.3 mg/kg for 1 hr by immunohistochemistry (reference value: 470).
A short description of assay [2]: Induction of c-Fos expression in C57BL/6 mouse assessed as cFos cell count in brain at 0.3 mg/kg for 4 hrs by immunohistochemistry (reference value: 470).
Assay [3] can be described thus: Induction of c-Fos expression in C57BL/6 mouse assessed as cFos cell count in brain at 0.1 mg/kg for 1 hr by immunohistochemistry (reference value: 470).
Assay [4] can be described thus: Induction of c-Fos expression in C57BL/6 mouse assessed as cFos cell count in brain at 3 mg/kg for 1 hr by immunohistochemistry (reference value: 470).
A short description of assay [5]: Induction of c-Fos expression in C57BL/6 mouse assessed as cFos cell count in brain at 0.3 mg/kg for 2 hrs by immunohistochemistry (reference value: 470).
A short description of assay [6]: Induction of c-Fos expression in C57BL/6 mouse assessed as cFos cell count in brain at 0.03 mg/kg for 1 hr by immunohistochemistry (reference value: 470).
The nature of assay [7]: Induction of c-Fos expression in C57BL/6 mouse assessed as cFos cell count in brain at 0.1 mg/kg by immunohistochemistry (reference value: 267).
Assay [8] is described as follows: Induction of c-Fos expression in C57BL/6 mouse assessed as cFos cell count in brain at 0.3 mg/kg for 2 hrs by immunohistochemistry (reference value: 413.7).
A short description of assay [9]: Induction of c-Fos expression in C57BL/6 mouse assessed as cFos cell count in brain at 0.01 mg/kg by immunohistochemistry (reference value: 267).
The nature of assay [10]: Induction of c-Fos expression in C57BL/6 mouse assessed as cFos cell count in brain at 0.3 mg/kg by immunohistochemistry (reference value: 267).
Assay [11] can be described thus: Induction of c-Fos expression in C57BL/6 mouse assessed as cFos cell count in brain at 0.3 mg/kg for 1 hr by immunohistochemistry (reference value: 413.7).
The nature of assay [12]: Induction of c-Fos expression in C57BL/6 mouse assessed as cFos cell count in brain at 0.03 mg/kg by immunohistochemistry (reference value: 267).
The nature of assay [13]: Induction of c-Fos expression in C57BL/6 mouse assessed as cFos cell count in brain at 0.1 mg/kg for 5 days by immunohistochemistry (reference value: 352 to 450). To be noted: time 5 day.
A short description of assay [14]: Induction of c-Fos expression in C57BL/6 mouse assessed as cFos cell count in brain at 0.1 mg/kg for 1 hr by immunohistochemistry (reference value: 413.7).
Assay [15] can be described thus: Induction of c-Fos expression in C57BL/6 mouse assessed as cFos cell count in brain at 1 mg/kg by immunohistochemistry (reference value: 267).
Assay [16] in a line: Induction of c-Fos expression in C57BL/6 mouse assessed as cFos cell count in brain at 0.1 mg/kg for 10 days by immunohistochemistry (reference value: 450). To be noted: time 10 day.
Assay [17] is described as follows: Induction of c-Fos expression in C57BL/6 mouse assessed as cFos cell count in brain at 0.1 mg/kg for 1 days by immunohistochemistry (reference value: 352). The following applies: time 1 day.
A short description of assay [18]: Induction of c-Fos expression in C57BL/6 mouse assessed as cFos cell count in brain at 0.3 mg/kg for 4 hrs by immunohistochemistry (reference value: 413.7).
The nature of assay [19]: Induction of c-Fos expression in C57BL/6 mouse assessed as cFos cell count in brain at 3 mg/kg for 1 hr by immunohistochemistry (reference value: 413.7).

Take `COc1cccc2nnn(CC(=O)N[C@@H](C)c3ccc(C)cc3)c(=O)c12`: the Activity in [1] is reported as 2458; in [2] it was 865; in assay [3] it was 2243; in assay [4], 2023; in [5], 2777; in [6], 1628.

Consider `C[C@H](NC(=O)Cn1nnc2ccccc2c1=O)c1ccc(OC(F)(F)F)cc1` [ZELATRIAZIN], for which the Activity in assay [7] is recorded as 1381; in assay [8], 1400; in assay [9], 1376; in [10], 1408; in assay [11], 1343; in [12], 986.3. Besides, the Activity in [13] came to 1928; in assay [14], 787.7; in assay [15], 1368; in [16], 1684; in assay [17], 1486; in assay [18] it was 2170. Moreover, the Activity in assay [19] is on record as 2365.
